Test results from patent EP1094724B1, “USE OF A PHENOL OXIDISING ENZYME IN THE TREATMENT OF TOBACCO” (priority 1998, dated 2000).

How the values were obtained:
[1] = molecular target: T1, laccase derived from Trametes villosa, TvL (Trametes villosa, UniProt Q99044); experiment: Effect of laccase on tobacco constituents, UV/Vis spectra before and after treatment (Example 1); format: biochemical; settings: 9 mM Na-acetate buffer pH 5.0; 4.8% Ethanol; 0.025 mg/ml of tobacco constituent; 0.016 mg/ml laccase; spectra 190-700 nm every 20 seconds for 5 minutes
T1 construct: purchased Novo Nordisk A/S
T1 sequence (Q99044 22-520): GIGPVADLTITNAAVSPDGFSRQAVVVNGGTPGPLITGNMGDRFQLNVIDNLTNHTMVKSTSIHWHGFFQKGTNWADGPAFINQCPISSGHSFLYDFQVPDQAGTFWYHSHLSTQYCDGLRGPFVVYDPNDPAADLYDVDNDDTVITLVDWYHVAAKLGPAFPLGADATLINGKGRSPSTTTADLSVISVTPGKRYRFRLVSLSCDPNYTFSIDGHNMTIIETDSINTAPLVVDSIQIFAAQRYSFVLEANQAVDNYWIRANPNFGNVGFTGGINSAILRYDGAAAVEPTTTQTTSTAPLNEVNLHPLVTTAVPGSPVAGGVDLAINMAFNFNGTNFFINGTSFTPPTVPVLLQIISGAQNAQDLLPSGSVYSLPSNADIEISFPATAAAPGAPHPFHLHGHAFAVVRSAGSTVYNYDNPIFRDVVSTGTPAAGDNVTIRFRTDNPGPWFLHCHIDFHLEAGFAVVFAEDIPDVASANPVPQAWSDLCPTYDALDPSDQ
Protocol: Tobacco constituents: Nicotine, Chlorogenic acid, Rutin and Scopoletin. Enzyme: Purified laccase derived from Trametes villosa, TvL. Apparatus: HP8452 UV/Vis diode array spectrophotometer, 1 cm quarts cuvette. Buffer: Sodium acetate (Merck)
10 mM acetate buffer was prepared from sodium acetate adjusted to pH 5.0 with sulphuric acid. Stock solution of 0.50 mg/ml in 96% ethanol was prepared of nicotine, chlorogenic acid, rutin, and scopoletin. A stock solution of 0.31 mg enzyme protein/ml of laccase in de-mineralised water was prepared. The HP diode array spectrophotometer was operated as per the manufacturer's instructions. A 1 cm quartz cuvette was used. As a blank was used 950µl buffer mixed with 50µl 96% ethanol. In a 1 cm quart cuvette was mixed 900µl 10 mM acetate buffer and 50µl of the stock solution of the compound in question. A spectrum of the "native" compound was recorded in the range 190-700 nm. 50µl of TvL stock solution was added and carefully mixed, and spectra in the range 190-700 nm were recorded every 20 seconds for 5 minutes.

[2] = molecular target: T2, Trametes villosa laccase (TvL) (Trametes villosa, UniProt Q99044); experiment: Laccase TvL treatment of tobacco extract, HPLC analysis of phenolic compounds (peak area); format: biochemical; settings: for % Remaining (peak area) after various treatment times: intensive, submerse aeration; for % Remaining (peak area) after 75 minutes / % Remaining (peak area) after 240 minutes: 1.6 µg/ml TvL, ambient temperature (approximately 20°C), surface aeration
T2 construct: purchased Novo Nordisk A/S
T2 sequence (Q99044 22-520): T1 sequence (Q99044 22-520)
Protocol: The content of phenolic compounds is analysed by HPLC according to the procedure described below: • Liquid chromatographic system: E.g. Shimadzu SCL-6B System Controller, and two LC-6A Liquid Chromatograph (pumps) or Waters model 600 E • Injector: Shimadzu SIL 6B Autoinjector or Waters 715 Ultra Wisp. UV detector: Shimadzu SPD-6A Photodiode Array UV-VIS detector or Waters Model 481 • Software: CLASS LC10 / CLASS-MXA or Maxima 820 • Column: Supelcosil™ LC-18 25 cm x 4.6 mm (Supelco, #5-8298) or µ Bondapack C198 stainless steel column, 30 cm x 4 mm i.d., 10 µm particle size. • Guard column: none or Guard-Pak from Waters packed with the same material. • Temperature: Ambient • Mobile phase flow: 1.3 ml/min • Injection volume: 20µl • Wavelength: 350 nm • Eluent: Binary gradient (linear) mixture of A: KH2PO4 (28.4 g in 2000 ml de-mineralised water) and B: methanol (please see table 1 and figure 1). The eluent is filtered through a 0.45 µm filter and degassed before use.
Prior to HPLC analysis, the samples were filtered through a 0.45 µm filter or smaller, e.g. a sterile Sartorius Minisart 0.45 µm filter (#16555) or a Millipore Millex-GS 0.22 µm (#SBGS 0 25 SB) to remove the haze/precipitate normally formed during enzyme treatment. Normally, no dilution of the extract/sample was made before HPLC analysis.
For qualitative and semi-quantitative measurements, each of the standards was dissolved in 96% ethanol, and then mixed in a ratio and at a concentration which was within the range in the tobacco extract. For semi-quantification of the phenolic compounds in the tobacco extract, and as a measure of development in concentration of the various compounds contained in the extract, decrease in peak area relative to the peak area before addition of enzyme was used. As a measure of overall efficiency of the process, degree of reduction in total peak area of all peaks (not only the major ones) in the HPLC chromatogram with retention time Rt>3 min was used (named: "All peaks").
Unless otherwise indicated, the tobacco was extracted at a laboratory scale with water according to the following procedure: 1000 ml demineralised water is heated to 45°C. 30 g tobacco (approx. 25 g d.m.) is added and the mixture stirred by a magnetic bar and occasionally with a stick. After 15 minutes the tobacco residue is separated from the tobacco extract by vacuum filtration (Whatman glass micro fibre GF/F 11 cm). The filtered extract is then vacuum filtered at least once more or until it is completely clear. Yield was around 900 ml tobacco extract. […] No buffer was thus included in any of the trials. D.m. content of the extract was approximately 2.1%.
Tobacco extract (typically 50-100 ml) was poured into a glass beaker and a magnetic bar was added. No pH adjustments were made, and no buffer was added. The tobacco extract was heated to and controlled at 55°C during the entire enzyme treatment by means of a heating plate and a thermostat. Intensive submerse aeration was applied by blowing atmospheric air into the extract by means of a metal sinter (metal suction filter normally used for HPLC). The enzyme in question (TvL or PpL) was added to the desired concentration. Shortly after addition of laccase, the colour of the tobacco extract turned dark brown to black, and with time the liquor became turbid and a precipitate formed. The liquor was sampled with intervals for HPLC analysis.
Enzyme treatment: Surface aeration was used. TvL enzyme was added to the tobacco extract to a concentration of approximately 1.6 µg/ml. […] HPLC chromatograms of the tobacco extract before, during, and after enzyme treatment as well as chromatograms of the mixture of HPLC standards are shown in figure 6, 7, ,8, and 9.
Enzyme treatment: pH of the extract was adjusted with H2SO4 or NaOH to pH 4, pH 5, pH 6, or pH 7. The extract was kept at ambient temperature (approximately 20°C) during the entire enzyme treatment. Surface aeration was used. […]

Row | Structure (SMILES) | spectral changes (peak position and peak relative height) [1] | % Remaining (peak area) after various treatment times ([2]; 40 Min, approximately 1.6 µg/ml TvL at 55°C and pH 5.4) | % Remaining (peak area) after various treatment times ([2]; 40 Min, approximately 7.8µg/ml TvL at 55°C and pH 5.4) | % Remaining (peak area) after various treatment times ([2]; 80 Min, approximately 1.6 µg/ml TvL at 55°C and pH 5.4) | % Remaining (peak area) after various treatment times ([2]; 120 Min, approximately 1.6 µg/ml TvL at 55°C and pH 5.4) | % Remaining (peak area) after 75 minutes ([2]; pH 4) | % Remaining (peak area) after 240 minutes ([2]; pH 4) | % Remaining (peak area) after 75 minutes ([2]; pH 5) | % Remaining (peak area) after 240 minutes ([2]; pH 5) | % Remaining (peak area) after 75 minutes ([2]; pH 6) | % Remaining (peak area) after 240 minutes ([2]; pH 6) | % Remaining (peak area) after 75 minutes ([2]; pH 7) | % Remaining (peak area) after 240 minutes ([2]; pH 7)
1 | CN1CCCC1c1cccnc1 (stereo not shown) [Nicotine] | No spectral changes |  |  |  |  |  |  |  |  |  |  |  | 
2 | C[C@@H]1O[C@@H](OC[C@H]2O[C@@H](Oc3c(-c4ccc(O)c(O)c4)oc4cc(O)cc(O)c4c3=O)[C@H](O)[C@@H](O)[C@@H]2O)[C@H](O)[C@H](O)[C@H]1O [R, rutin] |  | 20% | 0% | 0% | 0% | 44% | 0% | 29% | 0% | 14% | 0% | 87% | 63%
